Read-outs that look alike come from different tables or passages of the source.
Columns and labels:
Type in all cases: cell-based
[1] = system: BaF3_EGFRWT cells; assay: Cell growth inhibition assay, BaF3_EGFRWT; conditions: 80 ng/mL recombinant human EGF, 3 days treatment, CellTiterGlo 2.0, read-out: EGFR WT IC50 (nM), cell growth inhibition
[2] = system: BaF3_HER2WT cells; assay: Cell growth inhibition assay, BaF3_HER2WT; conditions: 3 days treatment, CellTiterGlo 2.0, read-out: HER2 WT IC50 (nM), cell growth inhibition
[3] = system: BaF3_HER2YVMA cells; assay: Cell growth inhibition assay, BaF3_HER2YVMA; conditions: BaF3_HER2YVMA cells, 3 days treatment, CellTiterGlo 2.0, read-out: HER2-YVMA IC50 (nM), cell growth inhibition

Row | SMILES | IC50 ([1]; 72 h) [nM] | IC50 ([2]; 72 h) [nM] | IC50 ([3]; 72 h) [nM] | IC50 [1] [nM] | IC50 [2] [nM] | IC50 [3] [nM]
1 | Cc1cc(Nc2ncnn3ccc(C4CN(C(=O)/C=C/CN(C)C)C4)c23)ccc1Oc1ccn2ccnc2c1 [Example 157, (E)-4-(dimethylamino)-1-(3-(4-((4-(imidazo[1,2-a]pyridin-7-yloxy)-3-methylphenyl)amino)pyrrolo [2,1-f][1,2,4]triazin-5-yl)azetidin-1-yl)but-2-en-1-one] | 1500 to 5000 | < 200 | < 200 |  |  | 
2 | CO[C@H]1CN(C/C=C/C(=O)N2CC(c3ccn4ncnc(Nc5ccc(Oc6ccc7c(c6)ncn7C)c(C)c5)c34)C2)C[C@H]1OC [Example 165, (E)-4-((3R,4S)-3,4-dimethoxypyrrolidin-1-yl)-1-(3-(4-((3-methyl-4-((1-methyl-1H-benzo[d]imidazol-5-yl)oxy)phenyl)amino)pyrrolo[2,1-f][1,2,4]triazin-5-yl)azetidin-1-yl)but-2-en-1-one] | 1500 to 5000 | < 200 | < 200 |  |  | 
3 | Cc1cc(Nc2ccn3ncnc(C4CC5CCC(C4)N5C(=O)/C=C/CN(C)C)c23)ccc1Oc1ccn2cnnc2c1 (stereo not drawn) [Example 33, (E)-1-(3-(5-((4-([1,2,4]triazolo[4,3-a]pyridin-7-yloxy)-3-methylphenyl)amino)pyrrolo[2,1-f][1,2,4]triazin-4-yl)-8-azabicyclo[3.2.1]octan-8-yl)-4-(dimethylamino)but-2-en-1-one acetate] | 1500 to 5000 | < 200 | 200 to 500 |  |  | 
4 | Cc1cc(Nc2ncnn3ccc(C(=O)NCCCN(C)C)c23)ccc1N [Example 181, 4-((4-amino-3-methylphenyl)amino)-N-(3-(dimethylamino)propyl)pyrrolo[2,1-f][1,2,4]triazine-5-carboxamide] | > 5000 | 1500 to 5000 | > 5000 |  |  | 
5 | C=CC(=O)N1CC2(C1)CN(c1ccn3ncnc(Nc4cnc(Oc5ccn6ncnc6c5)c(Cl)c4)c13)C2 [Example 15, 1-(6-(4-((6-([1,2,4]triazolo[1,5-a]pyridin-7-yloxy)-5-chloropyridin-3-yl)amino)pyrrolo[2,1-f][1,2,4]triazin-5-yl)-2,6-diazaspiro[3.3]heptan-2-yl)prop-2-en-1-one] | 1500 to 5000 | 1500 to 5000 | > 5000 |  |  | 
6 | CNC/C=C/C(=O)N1CC(c2ccn3ncnc(Nc4ccc(Oc5ccn6ncnc6c5)c(C)c4)c23)C1 [Example 151, (E)-1-(3-(4-((4-([1,2,4]triazolo[1,5-a]pyridin-7-yloxy)-3-methylphenyl)amino)pyrrolo[2,1-f][1,2,4]triazin-5-yl)azetidin-1-yl)-4-(methylamino)but-2-en-1-one] | 1500 to 5000 | < 200 | < 200 |  |  | 
7 | Cc1cc(Nc2ncnn3ccc(C4CCN(C(=O)/C=C/CN5CCCCC5)CC4)c23)ccc1Oc1ccn2ncnc2c1 [Example 57, (E)-1-(4-(4-((4-([1,2,4]triazolo[1,5-a]pyridin-7-yloxy)-3-methylphenyl)amino)pyrrolo[2,1-f][1,2,4]triazin-5-yl)piperidin-1-yl)-4-(piperidin-1-yl)but-2-en-1-one] | 1500 to 5000 | < 200 | < 200 |  |  | 
8 | Cc1cc(Nc2ncnn3ccc(C4CCN(C(=O)/C=C/CN5CCC(F)C5)CC4)c23)ccc1Oc1ccn2ncnc2c1 (stereo not drawn) [Example 164, (E)-1-(4-(4-((4-([1,2,4]triazolo[1,5-a]pyridin-7-yloxy)-3-methylphenyl)amino)pyrrolo[2,1-f][1,2,4]triazin-5-yl)piperidin-1-yl)-4-(3-fluoropyrrolidin-1-yl)but-2-en-1-one] | 1500 to 5000 | < 200 | < 200 |  |  | 
9 | C=CC(=O)NC1CCN(C(=O)c2ccn3ncnc(Nc4ccc(Oc5ccn6ncnc6c5)c(C)c4)c23)C1 (stereo not drawn) [Example 4, N-(1-(4-((4-([1,2,4]triazolo[1,5-a]pyridin-7-yloxy)-3-methylphenyl)amino)pyrrolo[2,1-f][1,2,4]triazine-5-carbonyl)pyrrolidin-3-yl)acrylamide] | 1500 to 5000 | < 200 | < 200 |  |  | 
10 | C=CC(=O)N1CC2CCC(C1)N2c1ccn2ncnc(Nc3ccc(Oc4ccn5ncnc5c4)c(C)c3)c12 [Example 44, 1-(8-(4-((4-([1,2,4]triazolo[1,5-a]pyridin-7-yloxy)-3-methylphenyl)amino)pyrrolo[2,1-f][1,2,4]triazin-5-yl)-3,8-diazabicyclo[3.2.1]octan-3-yl)prop-2-en-1-one] | 1500 to 5000 | < 200 | < 200 |  |  | 
11 | Cc1cc(Nc2ncnn3ccc(C4CCCN(C(=O)C(F)Cl)CC4)c23)ccc1Oc1ccn2ncnc2c1 (single isomer, unassigned) [Examples 145, 146, 147 and 148, third eluting isomer, 1-(4-(4-((4-([1,2,4]triazolo[1,5-a]pyridin-7-yloxy)-3-methylphenyl)amino)pyrrolo[2,1-f][1,2,4]triazin-5-yl)azepan-1-yl)-2-chloro-2-fluoroethan-1-one] |  |  |  | 1500 to 5000 | 200 to 500 | 500 to 1500
12 | Cc1cc(Nc2ncnn3ccc(C4=CCN(C(=O)/C=C/CN(C)C)C4)c23)ccc1Oc1ccn2ncnc2c1 [Example 29, (E)-1-(3-(4-((4-([1,2,4]triazolo[1,5-a]pyridin-7-yloxy)-3-methylphenyl)amino)pyrrolo[2,1-f][1,2,4]triazin-5-yl)-2,5-dihydro-1H-pyrrol-1-yl)-4-(dimethylamino)but-2-en-1-one acetate] | 1500 to 5000 | < 200 | 1500 to 5000 |  |  | 
13 | C=CC(=O)N(C)C1CCN(c2ccn3ncnc(Nc4ccc(Oc5ccn6ncnc6c5)c(C)c4)c23)C1 (stereo not drawn) [Example 72, N-(1-(4-((4-([1,2,4]triazolo[1,5-a]pyridin-7-yloxy)-3-methylphenyl)amino)pyrrolo[2,1-f][1,2,4]triazin-5-yl)pyrrolidin-3-yl)-N-methylacrylamide] | 1500 to 5000 | < 200 | < 200 |  |  | 
14 | CO[C@@H]1CN(C/C=C/C(=O)N2CCC(c3ccn4ncnc(Nc5ccc(Oc6ccn7ncnc7c6)c(C)c5)c34)CC2)C[C@H]1OC [Example 170, (E)-1-(4-(4-((4-([1,2,4]triazolo[1,5-a]pyridin-7-yloxy)-3-methylphenyl)amino)pyrrolo[2,1-f][1,2,4]triazin-5-yl)piperidin-1-yl)-4-((3R,4R)-3,4-dimethoxypyrrolidin-1-yl)but-2-en-1-one] | 1500 to 5000 | < 200 | < 200 |  |  | 
15 | Cc1cc(Nc2ncnn3ccc(C4CN(C(=O)/C=C/CN5CCC(F)(F)C5)C4)c23)ccc1Oc1ccn2ncnc2c1 [Example 84, (E)-1-(3-(4-((4-([1,2,4]triazolo[1,5-a]pyridin-7-yloxy)-3-methylphenyl)amino)pyrrolo[2,1-f][1,2,4]triazin-5-yl)azetidin-1-yl)-4-(3,3-difluoropyrrolidin-1-yl)but-2-en-1-one] | 1500 to 5000 | < 200 | 200 to 500 |  |  | 
16 | CO[C@@H]1CN(C/C=C/C(=O)N2CC(c3ccn4ncnc(Nc5ccc(Oc6ccc7c(c6)ncn7C)c(C)c5)c34)C2)C[C@H]1OC [Example 166, (E)-4-((3R,4R)-3,4-dimethoxypyrrolidin-1-yl)-1-(3-(4-((3-methyl-4-((1-methyl-1H-benzo[d]imidazol-5-yl)oxy)phenyl)amino)pyrrolo[2,1-f][1,2,4]triazin-5-yl)azetidin-1-yl)but-2-en-1-one] | 1500 to 5000 | < 200 | < 200 |  |  | 
